From ChEMBL document CHEMBL1201862, “PubChem BioAssay data set” (2004)
Calls of active or inactive are those of the source. Where a SMILES comes first, the peptide text is derived from it. Bridges are numbered along the chain shown (N, C = ends). [ ]: non-standard residue; d: D form. The star is where a group is joined. bishTyr = N[C@@H](CCCc1ccc(O)cc1)C(=O)O; Tigloyl = C/C=C(\C)C(=O)*; Dhb = C/C=C(\N)C(=O)O

Assays:
[1] = toxicity to human HepG2 hepatoma cells – cell-based, plate reader, dry powder samples, cytotoxicity control, dose response (AID 1159569); type: functional;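 note: inhibitor potency with signal falling toward the positive control level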
[2] = toxicity to human hepatoma HepG2 cells – cell-based, cherry-picked samples, cytotoxicity control, dose response (AID 1159577); type: functional
[3] = antimalarial activity against Dd2 parasites – SYBR Green fluorescence, erythrocytes, dry powder, set 2, dose response (AID 1159574); type: functional, cell-based
[4] = Dd2 parasite growth inhibition in erythrocytes – SYBR Green, dry powder samples, set 4, dose response (AID 1159572); type: functional, cell-based
[5] = P. falciparum Dd2 growth inhibitors, dose response, SYBR Green, cherry-picked samples (AID 1159567); type: functional, cell-based
[6] = growth inhibition of yeast DHODH-expressing 3D7 parasites – SYBR Green, dry powder samples, dose response (AID 1159570); type: functional, cell-based;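 note: parasite growth measured after 72 hours of compound exposure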
[7] = growth inhibition of PfATP4-mutant resistant parasites – NITD609-resistant line, SYBR Green, dry powder, dose response (AID 1159571); type: functional, cell-based;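 note: parasites synchronized at ring stage by sorbitol before testing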
[8] = Dd2 malaria parasite growth inhibition potency – SYBR Green, dry powder samples, dose response (AID 1159566); type: functional, cell-based;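 note: potency for growth inhibition with lower SYBR green DNA signal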
[9] = Dd2 parasite growth inhibition in erythrocytes – SYBR Green, dry powder samples, set 9, dose response (AID 1159568); type: functional, cell-based
[10] = target: NAD-dependent protein deacylase sirtuin-5, mitochondrial (Homo sapiens, UniProt Q9NXA8); test: sirtuin-5 deacylation blockers, concentration series – biochemical, fluorescence imaging, cherry-pick, set 5, dose response (AID 720591);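 note: desuccinylation of succinyl peptide AMC substrate read as fluorescence after trypsin release; potency of inhibitors that lower fluorescence and may act on trypsin instead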
Chain of NAD-dependent protein deacylase sirtuin-5, mitochondrial (Q9NXA8 whole entry): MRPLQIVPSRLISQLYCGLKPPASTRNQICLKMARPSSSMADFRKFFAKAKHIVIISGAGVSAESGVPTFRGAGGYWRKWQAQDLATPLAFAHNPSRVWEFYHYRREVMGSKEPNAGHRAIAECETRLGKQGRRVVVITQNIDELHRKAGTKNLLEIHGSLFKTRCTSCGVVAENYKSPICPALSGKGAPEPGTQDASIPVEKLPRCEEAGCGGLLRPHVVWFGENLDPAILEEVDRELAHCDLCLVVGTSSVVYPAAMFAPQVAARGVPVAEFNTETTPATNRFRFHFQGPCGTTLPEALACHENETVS

[11] = non-specific 3'UTR reporter inhibition in Clone20-Shn3RL – cell-based, Renilla luciferase, cherry-picked, counter-screen for Shn3 inhibitor project, dose response (AID 624133); type: functional
[12] = rise of 4N DNA cells, HeLa – IC50, dose response (AID 1117351); type: functional, cell-based
[13] = rise of 2N DNA cells, HeLa – IC50, dose response (AID 1117349); type: functional, cell-based
[14] = target: Heat shock protein HSP 90-alpha (Homo sapiens, UniProt P07900); type: functional, organism-based
[15] = reduction of Shn3 3'UTR-driven luciferase in osteoblasts – cell-based, Clone20 osteoblasts, firefly luciferase, cherry-picked, dose response (AID 624132); type: functional;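 note: firefly luciferase luminescence from reporter carrying the Shn3 3'UTR in osteoblasts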
[16] = reduced cellular PGC1a acetyl-lysine signal – cell-based, cherry-picked samples, dose response (AID 720514); type: functional;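 note: potency may reflect raised or lowered acetylation signal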
[17] = target: T1, COUP transcription factor 2 (Homo sapiens, UniProt P24468); test: Luminescence-based cell-based high throughput dose response assay to identify inhibitors of COUP-TFII (NR2F2).; type: functional;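 note: HEK293 cells transiently cotransfected with COUP-TFII expression vector and reporter; luciferase reporter luminescence driven by COUP-TFII from the pX2-168 reporter plasmid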
T1 sequence (P24468 whole entry): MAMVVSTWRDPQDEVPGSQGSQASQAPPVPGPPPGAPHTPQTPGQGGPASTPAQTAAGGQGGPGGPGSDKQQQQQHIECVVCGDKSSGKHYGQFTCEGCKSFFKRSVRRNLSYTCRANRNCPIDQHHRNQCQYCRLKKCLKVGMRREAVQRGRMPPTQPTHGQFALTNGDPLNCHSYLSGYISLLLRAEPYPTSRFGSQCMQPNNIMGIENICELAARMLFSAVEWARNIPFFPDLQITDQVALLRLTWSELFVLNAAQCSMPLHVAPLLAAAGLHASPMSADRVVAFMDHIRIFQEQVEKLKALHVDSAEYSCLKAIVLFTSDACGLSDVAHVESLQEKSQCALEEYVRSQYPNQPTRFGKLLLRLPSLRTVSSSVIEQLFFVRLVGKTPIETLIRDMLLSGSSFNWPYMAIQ

[18] = CellTiter-Glo luminescence survival assay, SW480 colon tumor line, concentration-response curve, half-maximal inhibitory concentration (AID 1117338); type: functional
[19] = cytotoxicity toward Colo320 cells – cell-based, CellTiter-Glo luminescence, IC50, dose response (AID 1117334); type: functional; details: COLO 320
[20] = HCT116 cell viability decrease, GSK3B pretreatment – CellTiter-Glo, IC50, dose response (AID 1117339); type: functional; details: HCT-116
[21] = SNU-C1 cell viability reduction, dose response, CellTiter-Glo luminescence (AID 1117323); type: functional, cell-based
[22] = RKO cell viability reduction, dose response, CellTiter-Glo luminescence (AID 1117322); type: functional
[23] = cytotoxicity toward HCT116 cells – cell-based, CellTiter-Glo luminescence, IC50, dose response (AID 1117332); type: functional; details: HCT-116
[24] = cytotoxicity toward HT-29 cells – cell-based, CellTiter-Glo luminescence, IC50, dose response (AID 1117330); type: functional
[25] = Reduced DLD-1 viability, concentration-response, CellTiter-Glo luminescence (AID 1117352); type: functional

SMILES: COc1ccc2c3c([nH]c2c1)[C@H](CO)N(C(C)=O)CC31CCN(C(=O)Nc2ccccc2F)CC1
- AC50 [1]: 46.9 µM (active)
- AC50 [2]: 33.4 µM (active)
- AC50 [3]: 0.0828 µM (active)
- AC50 [4]: 0.101 µM (active)
- AC50 [5]: < 0.3 µM (active)
- AC50 [6]: 0.0263 µM (active)
- AC50 [7]: 0.0166 µM (active)
- AC50 [8]: 0.0279 µM (active)

SMILES: C[C@@H]1CCCCO[C@H](CN(C)S(=O)(=O)c2ccccc2)[C@@H](C)CN([C@H](C)CO)C(=O)c2cc(NC(=O)Nc3ccc4c(c3)OCO4)ccc2O1
- AC50 [9]: 8.49 µM (active)

SMILES: C/C=C1\NC(=O)[C@H](C)NC(=O)[C@@H](NC(=O)[C@H](Cc2ccc(O)cc2)NC(=O)[C@@H](NC(=O)/C(C)=C/C)C(C)C)[C@@H](C)OC(=O)[C@H](CCCc2ccc(O)cc2)NC(=O)[C@@H](CCC(=O)O)NC1=O (Tigloyl-VYTA[Dhb][dE][bishTyr]; ester 3-C)
- AC50 [10]: 12.6 µM (active)

SMILES: C[C@@H]1C[C@@H]([C@H](O)CC2CC(=O)NC(=O)C2)C(=O)[C@@H](C)C1 [CYCLOHEXIMIDE]
- AC50 [11]: 0.695 µM (active)
- IC50 [12]: > 10 µM (inactive)
- IC50 [13]: > 10 µM (inactive)
- AC50 [14]: < 0.195 µM (active)
- AC50 [15]: 0.345 µM (active)
- AC50 [16]: 2.23 µM (active)
- IC50 [17]: 1.32 µM (active)

SMILES: O=C(c1cc(O)c(O)c(O)c1)c1ccc(O)c(O)c1O [EXIFONE]
- IC50 [18]: 9.95 µM (inactive)
- IC50 [12]: > 10 µM (inactive)
- IC50 [19]: 9.38 µM (inactive)
- IC50 [20]: 0.0691 µM (active)
- IC50 [21]: 12.8 µM (inactive)
- IC50 [13]: > 10 µM (inactive)
- IC50 [22]: 0.192 µM (active)
- IC50 [23]: 16.3 µM (inactive)
- IC50 [24]: 9.45 µM (inactive)
- IC50 [25]: 11.9 µM (inactive)
